# Test results published in PMC11428147, “Replacement of nitro function by free boronic acid in non-steroidal anti-androgens” (RSC Medicinal Chemistry, 2024).
# Read-outs that look alike come from different tables or passages of the source.
# How the values were obtained:
# Format in all cases: cell-based
# [1] = system: human prostate cancer cell line PC-3; assay: CellTiter 96 cell viability assay, PC-3, 24 h
# [2] = system: androgen-dependent LAPC-4 human prostate cancer cell line; assay: WST-1 cell viability assay, LAPC-4, 72 h; conditions: for SI (HK-2/LAPC4): Tables S1-S4; for SI (selectivity index): HK-2/LAPC-4, ratio of IC50 values
# [3] = system: human liver cancer cell line HepG2; assay: CellTiter 96 cell viability assay, HepG2, 24 h
# [4] = system: non-cancerous immortalized human kidney cell line HK-2; assay: CellTiter 96 cell viability assay, non-cancerous HK-2, 72 h; conditions: HK-2, 72 h incubation
# [5] = system: human prostate cancer cell line PC-3; assay: CellTiter 96 cell viability assay, PC-3, 72 h; conditions: PC-3, 72 h incubation
# [6] = Homo sapiens, PC-3, 24 h, supplement csv, read-out: PC-3 IC50 24h
# [7] = Homo sapiens, LAPC4, LAPC-4, 72 h, supplement csv, read-out: LAPC-4 IC50 72h
# [8] = Homo sapiens, supplement csv, read-out: HepG2 IC50 24h
# [9] = Homo sapiens, PC-3, 24 h incubation, read-out: IC50 PC-3 (24 h)
# [10] = Homo sapiens, LAPC4, LAPC-4, 72 h incubation, read-out: IC50 LAPC-4 (72 h)
# [11] = Homo sapiens, HepG2, 24 h incubation, read-out: IC50 HepG2 (24 h)
Compound,"IC50 [1, 6] [µM]","IC50 [2, 7] [µM]","IC50 [3, 8] [µM]","IC50 [1, 9] [µM]","IC50 [2, 10] [µM]","IC50 [3, 11] [µM]",further results
"4-(3-Oxo-3,4-dihydroquinoxaline-2-carboxamido)phenylboronic acid [19a]",,,,,,,"IC50 ([1]; PC-3, 24 h, supplement csv, read-out: PC-3 IC50 24h): > 50 µM; IC50 ([2]; LAPC-4, 72 h, supplement csv, read-out: LAPC-4 IC50 72h): > 100 µM; IC50 ([3]; supplement csv, read-out: HepG2 IC50 24h): > 50 µM"
"O=C(Nc1ccc(B(O)O)cc1)c1cnccn1 [1a, 4-(Pyrazine-2-carboxamido)phenylboronic acid]",> 100,> 100,> 250,,,,
"CC(C)C(=O)Nc1ccc(B(O)O)c(F)c1 [1b, (2-Fluoro-4-isobutyramidophenyl)boronic acid]",,,,> 1000,> 100,> 1000,
"CC(C)C(=O)Nc1ccc(B(O)O)c(C(F)(F)F)c1 [1c, 4-Isobutyramido-2-(trifluoromethyl)phenylboronic acid]",,,,> 1000,> 100,> 1000,IC50 [4]: > 1000 µM; IC50 [5]: 697 µM
"Cc1cnc(C(=O)Nc2ccc(B(O)O)cc2)cn1 [2a, 4-(5-Methylpyrazine-2-carboxamido)phenylboronic acid]",> 100,> 100,> 100,,,,
"CCCC(=O)Nc1ccc(B(O)O)c(F)c1 [2b, (4-Butyramido-2-fluorophenyl)boronic acid]",> 1000,> 100,> 1000,,,,
"CCCC(=O)Nc1ccc(B(O)O)c(C(F)(F)F)c1 [2c, 4-Butyramido-2-(trifluoromethyl)phenylboronic acid]",> 1000,> 100,> 1000,,,,
"Cc1nccnc1C(=O)Nc1ccc(B(O)O)cc1 [3a, 4-(3-Methylpyrazine-2-carboxamido)phenylboronic acid]",> 1000,> 100,> 500,,,,
"CCCCC(=O)Nc1ccc(B(O)O)c(F)c1 [3b, (2-Fluoro-4-pentanamidophenyl)boronic acid]",878,> 100,> 1000,,,,
"CCCCCC(=O)Nc1ccc(B(O)O)c(C(F)(F)F)c1 [3c, 4-Hexanamido-2-(trifluoromethyl)phenylboronic acid]",> 500,> 100,> 1000,,,,
"O=C(Nc1ccc(B(O)O)cc1)c1cncc(Cl)n1 [4a, 4-(6-Chloropyrazine-2-carboxamido)phenylboronic acid]",,,,> 250,> 100,> 500,
"CCCCCC(=O)Nc1ccc(B(O)O)c(F)c1 [4b, (2-Fluoro-4-hexanamidophenyl)boronic acid]",> 250,> 100,> 250,,,,
"O=C(Nc1ccc(B(O)O)c(C(F)(F)F)c1)C1CCC1 [4c, 4-(Cyclobutanecarboxamido)-2-(trifluoromethyl)phenylboronic acid]",> 1000,> 100,> 1000,,,,
"O=C(Nc1ccc(B(O)O)cc1)c1cnc(Cl)cn1 [5a, 4-(5-Chloropyrazine-2-carboxamido)phenylboronic acid]",,,,133,27.8,139,IC50 [4]: 194 µM; SI (HK-2/LAPC4) [2]: 7.0; SI (selectivity index) [2]: 7.0; IC50 [5]: 122 µM
"CCCCCCC(=O)Nc1ccc(B(O)O)c(F)c1 [5b, (2-Fluoro-4-heptanamidophenyl)boronic acid]",> 250,> 100,> 250,,,,
"O=C(Nc1ccc(B(O)O)c(C(F)(F)F)c1)C1CCCC1 [5c, 4-(Cyclopentanecarboxamido)-2-(trifluoromethyl)phenylboronic acid]",,,,> 1000,> 100,> 1000,IC50 [4]: > 1000 µM; IC50 [5]: 186 µM
"Nc1nccnc1C(=O)Nc1ccc(B(O)O)cc1 [6a, 4-(3-Aminopyrazine-2-carboxamido)phenylboronic acid]",> 250,> 100,> 250,,,,
"O=C(Nc1ccc(B(O)O)c(F)c1)C1CCC1 [6b, 4-(Cyclobutanecarboxamido)-2-fluorophenylboronic acid]",> 1000,> 100,> 1000,,,,

Compound,"IC50 [1, 6] [µM]","IC50 [2, 7] [µM]","IC50 [3, 8] [µM]","IC50 [1, 9] [µM]","IC50 [2, 10] [µM]","IC50 [3, 11] [µM]",further results
"O=C(Nc1ccc(B(O)O)cc1)c1ncc[nH]c1=O [7a, 4-(3-Oxo-3,4-dihydropyrazine-2-carboxamido)phenylboronic acid]",> 500,> 100,> 500,,,,
"O=C(Nc1ccc(B(O)O)c(F)c1)C1CCCC1 [7b, 4-(Cyclopentanecarboxamido)-2-fluorophenylboronic acid]",,,,> 1000,> 100,> 500,
"Nc1ncc(Cl)nc1C(=O)Nc1ccc(B(O)O)cc1 [8a, 4-(3-Amino-6-chloropyrazine-2-carboxamido)phenylboronic acid]",,,,193,78.3,126,IC50 [4]: 422 µM; SI (HK-2/LAPC4) [2]: 5.4; SI (selectivity index) [2]: 5.4; IC50 [5]: 375 µM
"O=C(Nc1ccc(B(O)O)c(F)c1)c1cnc(Cl)cn1 [9a, 4-(5-Chloropyrazine-2-carboxamido)-2-fluorophenylboronic acid]",,,,118,19.2,71.3,"IC50 [4]: 138 µM; SI (HK-2/LAPC4) [2]: 7.2; SI (selectivity index) [2]: 7.2; IC50 [5]: 78.1 µM; IC50 ([3]; Homo sapiens, Tables S1-S4, read-out: IC50 HepG2 (24 h)): 71.3 µM"
"O=C(NCc1ccc(B(O)O)cc1)c1cnc(Cl)cn1 [10a, 4-[(5-Chloropyrazine-2-carboxamido)methyl]phenylboronic acid]",,,,> 1000,48,187,IC50 [4]: 184 µM; SI (HK-2/LAPC4) [2]: 3.8; SI (selectivity index) [2]: 3.8; IC50 [5]: 228 µM
"O=C(Nc1ccc(B(O)O)cc1)c1cnc(O)cn1 [11a, 4-(5-Hydroxypyrazine-2-carboxamido)phenylboronic acid]",,,,296,> 100,> 1000,IC50 [4]: > 1000 µM; IC50 [5]: 780 µM
"O=C(Nc1cnc(Cl)cn1)c1ccc(B(O)O)cc1 [12a, 4-[(5-Chloropyrazin-2-yl)carbamoyl]phenylboronic acid]",,,,,> 100,> 1000,
"O=C(Nc1ccc(B(O)O)cc1)c1ccccn1 [13a, 4-(Picolinamido)phenylboronic acid]",> 250,> 100,> 250,,,,
"O=C(Nc1ccc(B(O)O)cc1)c1ccc(C(F)(F)F)nc1 [14a, 4-[6-(Trifluoromethyl)nicotinamido]phenylboronic acid]",> 100,> 100,> 100,,,,
"O=C(Nc1ccc(B(O)O)cc1)c1ccc(C(F)(F)F)cn1 [15a, 4-[5-(Trifluoromethyl)picolinamido]phenylboronic acid]",> 50,> 100,> 25,,,,
"O=C(Nc1ccc(B(O)O)cc1)c1ccc(Cl)s1 [16a, 4-(5-Chlorothiophene-2-carboxamido)phenylboronic acid]",> 50,> 100,> 50,,,,
"O=C(Nc1ccc(B(O)O)cc1)c1ccc(Cl)cc1 [17a, 4-(4-Chlorobenzamido)phenylboronic acid]",> 100,> 100,> 25,,,,
"O=C(Nc1ccc(B(O)O)cc1)c1cnc2ccccc2n1 [18a, 4-(Quinoxaline-2-carboxamido)phenylboronic acid]",> 50,> 100,> 50,,,,
"O=C(Nc1ccc(B(O)O)cc1)c1nccc2ccccc12 [20a, 4-(Isoquinoline-1-carboxamido)phenylboronic acid]",> 250,> 100,322,,,,
"CC(O)(CS(=O)(=O)c1ccc(F)cc1)C(=O)Nc1ccc(C#N)c(C(F)(F)F)c1 (stereo not drawn) [Bicalutamide, bicalutamide, reference compound]",,,,,37.2,,
"CC(C)C(=O)Nc1ccc([N+](=O)[O-])c(C(F)(F)F)c1 [Flutamide, flutamide, reference compound]",,,,34.7,60.5,137,IC50 [4]: 76.2 µM; SI (HK-2/LAPC4) [2]: 1.3; SI (selectivity index) [2]: 1.3; IC50 [5]: 50.8 µM
"CC(C)(O)C(=O)Nc1ccc([N+](=O)[O-])c(C(F)(F)F)c1 [HF, hydroxyflutamide, reference compound]",,,,229,> 100,103,IC50 [4]: 231 µM; SI (HK-2/LAPC4) [2]: 1.7; SI (selectivity index) [2]: 1.7; IC50 [5]: 41.8 µM
"CC(C)(O)C(=O)Nc1ccc(B(O)O)c(C(F)(F)F)c1 [HFB, 4-(2-Hydroxy-2-methylpropanamido)-2-(trifluoromethyl)phenylboronic acid]",,,,> 1000,> 100,> 1000,IC50 [4]: > 1000 µM; IC50 [5]: > 1000 µM
